In one series the test system is mouse macrophages. The series can be described thus: eGFP mRNA transfection of mouse macrophages with or without mannose-dendrimer coat. The series is classed as cell-based. How it is done: J774.2 cells were subcultured in DMEM supplemented with 2 mM glutamax and 10% heat-inactivated FBS (complete media). Twice a week (at about 70-80% confluency; every 3-4 days), cells were scrapped and collected into Falcon tubes, and pelleted at 400 g for 5 minutes. The cells were resuspended in complete media, counted and seeded into 10 cm dishes at a density of 1.7-2.5E+4 cells/cm^2. For M2 polarisation, the cells were treated with complete media supplemented with 20 ng/ml recombinant murine IL-4 and 20 ng/ml recombinant murine IL-13 (activation media) over a 48 hr period. After 24 hrs in IL-4 and IL-13 containing medium, the cells scrapped and collected as described above. The cells were seeded into 24-well plates at a density of 1.2E+5 cells/well in 0.5mls/well complete media containing 20 ng/ml IL-4 and IL-13.
The media overlaying the polarised J774.2 cells was aspirated and exchanged with 480 ul/well activation media. 120 ul/well of each test condition (total volume was 600 ul/well) was added (test conditions were prepared in 25 mM HEPES solution). Control conditions were prepared consisting of neat 25 mM HEPES and an mRNA control. Between addition of each test condition the plate was shaken back and forth to ensure mixing. The plate was placed into the incubator overnight.
Staining and fixation for both human and mouse-derived macrophages was carried out as follows. After 24 hrs the media overlaying each test condition was transferred to corresponding 1.5 ml Eppendorf tubes (in order to conserve cells that may have died during transfection). Cells were then washed with 300 ul/well PBS which was transferred to the corresponding tubes. 500 ul/well 5 mM EDTA was added to each well and the plate(s) transferred to the 37° C. incubator for 5-10 minutes until the cells started to detach. Cells were then transferred from the plate to the corresponding 1.5 ml tubes. Cells were pelleted down at 300 g for 5 minutes and resuspended in 100 ul/sample fixable Live/Dead Aqua stain. ArC beads were stained with 3 ul neat Live/Dead Aqua for compensation. These cells were stained on ice for 30 minutes. Following this, the tubes were spun down at 300 g for 5 minutes. The supernatant was discarded, and the cells were resuspended in 500 ul/sample PBS. Negative ArC beads were added to the compensation control. GFP compensation beads were dispensed into separate tube as the GFP compensation control. The samples were spun down at 300 g for 5 minutes. Samples were then resuspended in 100 ul/sample of Reagent A from the Invitrogen Fix/Perm kit and left at room temperature for 15 minutes. The samples were spun down at 400 g for 5 minutes and the supernatant was disposed. The samples were once again washed with PBS and spun down at 300 g for 5 minutes. The cells were finally resuspended in 400 ul/sample FACS buffer (PBS+2 mM EDTA+0.5% w/v BSA) for flow analysis. Samples were stored in the fridge prior to flow analysis and run within 24 hrs of fixation.
12 μl of a nanoparticle formulation was aliquoted into a sterile 0.5 ml polypropylene tube. 4 μl of a 0.3 mg/ml, 0.6 mg/ml or 1.8 mg/ml solution of (Ac-EEEE)2[…][(S-S)-α-D-Thiomannose] (for a mRNA:coating mass ratio of 1:0.5, 1:1 or 1:3, respectively) was mixed by rapidly pipetting up and down 10-15 times, and allowed to incubate for 5 minutes.
Macrophages, and in particular M2-phenotype macrophages, are known to have enriched surface expression of the receptor CD206, the ligand for which is mannose.

Series [1] can be described thus: Dynamic light scattering: hydrodynamic size and polydispersity index (PDI) of nanoparticles. The series is classed as physicochemical. In short, it runs like this:
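Hydrodynamic size measured by DLS (Stokes-Einstein), PDI from cumulants fit per ISO 13321/22412. Samples diluted 16× in 25 mM HEPES, water as dispersant, 25° C; PDI measured on dendrimer:nucleic acid 8:1 nanoparticles.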

Setting [2] is: GSCG1,2-RHL N:P=0.6:1, DOTMA:DOPE, coated with GSGGSGGSCG1-EEEE, with/without CpG (mRNA:CpG w/w 9:1).
Where [3] appears, read: GSCG1,2-RHL and DOTMA:DOPE nanoparticles, 150 ug/mL mRNA, 40× dilution in 25 mM HEPES buffer.
Setting [4] is: mRNA, N:P 0.6:1, DOTMA:DOPE w/w 10:1, with or without 3 equivalents G1-EEEE with mannose coating.

As for (RHL)4(KRHL)2KGSC-NH2 [GSCG1,2-RHL], in the series with mouse macrophages (NP=0.6:1, lipid:mRNA w/w 10:1, coat 3:1 (3 eq) coating:mRNA, FIG. 7), the “transfection efficiency with mannose-conjugated dendrimer coat versus uncoated” value is “further increase the transfection efficiency”. For the same substance, the transfection efficiency in the series on mouse macrophages (NP=0.6:1, lipid:mRNA w/w 10:1, uncoated, FIG. 7) was greater than 70%; with mouse macrophages (NP=8:1, lipid:mRNA w/w 2.5:1, coated with (Ac-EEEE)2KGSGGSGGSC[(S-S)-α-D-Thiomannose] at 1:1 (1 eq) coating:mRNA, FIG. 4), roughly 25%; in the series with mouse macrophages (NP=8:1, lipid:mRNA w/w 2.5:1, uncoated, FIG. 4), 2-3%; in the series on mouse macrophages (NP=8:1, lipid:mRNA w/w 5:1, dendrimer-mannose coat 0.5:1 (0.5 eq) coating:mRNA, FIG. 5) it was roughly 75%; in the series with mouse macrophages (NP=8:1, lipid:mRNA w/w 5:1, uncoated, lipid-only nanoparticles as comparator, FIG. 5), roughly 60%. The same substance had a transfection rate in the series on mouse macrophages (NP=8:1, DOTMA/DOPE:mRNA w/w 10:1, uncoated, FIG. 6) of roughly 60%. In series [1] (setting [2]), this substance gave a Hydrodynamic size of 174 nm. Besides, the PDI in series [1] (setting [2]) was 0.17; in series [1] (setting [4]) it was 0.1776. The “DLS measurement, Pdl” value in series [1] (setting [3]) amounted to 0.13. In series [1] (setting [3]), the “DLS measurement, size” value amounted to 184 nm. The size in series [1] (setting [4]) worked out at 149.5 nm.
